Holding throughout (assay type): cell-based
For test [1], the system named is Mannheimia haemolytica MH 6357 (M7/2). The test can be described thus: MIC, broth-microdilution (CLSI), strain MH 6357. The following applies: Mannheimia haemolytica M7/2, reference strain (cattle infection strain). On the procedure: (§1) The Minimum inhibitory concentrations (MIC) of compounds according to the invention for a number of veterinary bacterial pathogens were determined by the broth-microdilution method according to CLSI document VETO 1-A4.
(§2) Microdilution trays containing a doubling dilution series of the test compound were used for the tests. The MIC results were interpreted according to the CLSI documents VET01-S3. The lowest concentration of compound at which no visible growth (i.e. no turbidity) detected by the unaided eye was recorded as the MIC.

Test [2] concerns Mannheimia haemolytica MH 6374 (ATCC 33396). Nature of the test: MIC, broth-microdilution (CLSI), strain MH 6374. The settings on record: Mannheimia haemolytica ATCC 33396, reference strain. On the procedure: as §1, §2
Test [3] has as its system Mannheimia haemolytica MH 10720 (154). Nature of the test: MIC, broth-microdilution (CLSI), strain MH 10720. The settings on record: Mannheimia haemolytica 154, BRD field isolate. On the procedure: as §1, §2
Test [4] has as its system Mannheimia haemolytica MH 12587 (1071), macrolide-resistance: erm+, E+. The test can be described thus: MIC, broth-microdilution (CLSI), strain MH 12587. The settings on record: Mannheimia haemolytica 1071, BRD field isolate. The procedure:
as §1, §2

Test [5] relates to Mannheimia haemolytica MH 13065 (XB0446-6003.9). Nature of the test: MIC, broth-microdilution (CLSI), strain MH 13065. The settings on record: Mannheimia haemolytica XB0446-6003.9, BRD field isolate. On the procedure: as §1, §2
For test [6], the system named is Mannheimia haemolytica MH 13093 (XB0472-6014.1). The test can be described thus: MIC, broth-microdilution (CLSI), strain MH 13093. The following applies: Mannheimia haemolytica XB0472-6014.1, BRD field isolate. On the procedure:
as §1, §2

For test [7], the system named is Pasteurella multocida PM 6267 (P 2225 (L386)). The test can be described thus: MIC, broth-microdilution (CLSI), strain PM 6267. The following applies: Pasteurella multocida P 2225 (L386), reference strain (mouse infection strain). The procedure:
as §1, §2

Test [8] concerns Pasteurella multocida PM 6391 (ATCC 43137). Nature of the test: MIC, broth-microdilution (CLSI), strain PM 6391. The settings on record: Pasteurella multocida ATCC 43137, reference strain. The procedure:
as §1, §2

In test [9] the test system is Pasteurella multocida PM 10775 (080130003051). Nature of the test: MIC, broth-microdilution (CLSI), strain PM 10775. The settings on record: Pasteurella multocida 080130003051, BRD field isolate. The procedure:
as §1, §2

Test [10] relates to Pasteurella multocida PM 12080 (IV102277-0093). The test can be described thus: MIC, broth-microdilution (CLSI), strain PM 12080. The following applies: Pasteurella multocida IV102277-0093, BRD field isolate. The procedure:
as §1, §2

≈ marks a conversion by molar mass, not a printed value.

On to `CNC(=O)C(NC(=O)c1ccc(C#Cc2ccc(CNC3CCC3)cc2)cc1)C(=O)NO` (centres unmarked) [Compound 8], for which the “MIC MH 6357” value in test [1] is 3.1 µM (≈ 1.35 µg/mL). For the same compound, the “MIC MH 6374” value in test [2] was found to be 6.3 µM (≈ 2.74 µg/mL). Besides, in test [3], the “MIC MH 10720” value was found to be 1.6 µM (≈ 0.695 µg/mL). Besides, the “MIC MH 12587” value in test [4] was found to be 12.5 µM (≈ 5.43 µg/mL). Further, the “MIC MH 13065” value in test [5] is 6.3 µM (≈ 2.74 µg/mL). Further, the “MIC MH 13093” value in [6] is 6.3 µM (≈ 2.74 µg/mL). Also, the “MIC PM 6267” value in test [7] was not above 0.1 µM. For the same compound, in test [8], the “MIC PM 6391” value worked out at 0.4 µM (≈ 0.174 µg/mL). The “MIC PM 10775” value in test [9] is not above 0.1 µM. Besides, in [10], the “MIC PM 12080” value was 0.4 µM (≈ 0.174 µg/mL).

On to `CNC(=O)C(NC(=O)c1ccc(C#Cc2ccc(CNC3CCCC3)cc2)cc1)C(=O)NO` (centres unmarked) [Compound 9], for which the “MIC MH 6357” value in test [1] is 6.3 µM (≈ 2.83 µg/mL). Further, in test [2], the “MIC MH 6374” value is 25 µM (≈ 11.2 µg/mL). In [3], the “MIC MH 10720” value was 3.1 µM (≈ 1.39 µg/mL). For the same compound, the “MIC MH 12587” value in test [4] amounted to 25 µM (≈ 11.2 µg/mL). Further, the “MIC MH 13065” value in [5] stood at 12.5 µM (≈ 5.61 µg/mL). For the same compound, the “MIC MH 13093” value in [6] stood at 12.5 µM (≈ 5.61 µg/mL). In addition, in [7], the “MIC PM 6267” value stood at 0.4 µM (≈ 0.179 µg/mL). Also, the “MIC PM 6391” value in test [8] turned out to be 0.4 µM (≈ 0.179 µg/mL). In addition, in test [9], the “MIC PM 10775” value was 0.2 µM (≈ 0.0897 µg/mL). The “MIC PM 12080” value in test [10] stood at 0.4 µM (≈ 0.179 µg/mL).

As for `CCCNCc1ccc(C#Cc2ccc(C(=O)NC(C(=O)NC)C(=O)NO)cc2)cc1` (centres unmarked) [Compound 10], the “MIC MH 6357” value in test [1] came to 3.1 µM (≈ 1.31 µg/mL). In [2], the “MIC MH 6374” value was 6.3 µM (≈ 2.66 µg/mL). Besides, in test [3], the “MIC MH 10720” value is 1.6 µM (≈ 0.676 µg/mL). For the same compound, in test [4], the “MIC MH 12587” value was 12.5 µM (≈ 5.28 µg/mL). Moreover, in [5], the “MIC MH 13065” value stood at 3.1 µM (≈ 1.31 µg/mL). The “MIC MH 13093” value in [6] came out at 1.6 µM (≈ 0.676 µg/mL). In addition, the “MIC PM 6267” value in test [7] worked out at 0.8 µM (≈ 0.338 µg/mL). In addition, the “MIC PM 6391” value in test [8] is 0.8 µM (≈ 0.338 µg/mL). Further, the “MIC PM 10775” value in test [9] was determined as 0.2 µM (≈ 0.0845 µg/mL). The “MIC PM 12080” value in [10] was 0.8 µM (≈ 0.338 µg/mL).

Consider `CNC(=O)C(NC(=O)c1ccc(C#Cc2ccc(CNCc3cccnc3)cc2)cc1)C(=O)NO` (centres unmarked) [Compound 11], for which the “MIC MH 6357” value in test [1] came out at 0.4 µM (≈ 0.189 µg/mL). Moreover, the “MIC MH 6374” value in test [2] was found to be 0.8 µM (≈ 0.377 µg/mL). Further, in [3], the “MIC MH 10720” value was 0.2 µM (≈ 0.0943 µg/mL). Further, in [4], the “MIC MH 12587” value worked out at 0.8 µM (≈ 0.377 µg/mL). In addition, the “MIC MH 13065” value in test [5] was 0.8 µM (≈ 0.377 µg/mL). The “MIC MH 13093” value in test [6] is 1.6 µM (≈ 0.754 µg/mL). Also, the “MIC PM 6267” value in [7] was not above 0.1 µM. Further, the “MIC PM 6391” value in [8] was 0.2 µM (≈ 0.0943 µg/mL). Further, the “MIC PM 10775” value in [9] is not above 0.1 µM. Moreover, the “MIC PM 12080” value in [10] was not above 0.1 µM.

On to `CNC(=O)C(NC(=O)c1ccc(C#Cc2ccc(CNCc3ccnc(Cl)c3)cc2)cc1)C(=O)NO` (centres unmarked) [Compound 12], for which, in test [1], the “MIC MH 6357” value was 0.2 µM (≈ 0.101 µg/mL). For the same compound, the “MIC MH 6374” value in [2] is 0.4 µM (≈ 0.202 µg/mL). The “MIC MH 10720” value in [3] is not above 0.1 µM. In test [4], the “MIC MH 12587” value came out at 0.8 µM (≈ 0.405 µg/mL). The “MIC MH 13065” value in [5] amounted to 0.4 µM (≈ 0.202 µg/mL). Besides, in test [6], the “MIC MH 13093” value was found to be 0.4 µM (≈ 0.202 µg/mL). In test [7], the “MIC PM 6267” value was not above 0.1 µM. In test [8], the “MIC PM 6391” value is not above 0.1 µM. For the same compound, the “MIC PM 10775” value in test [9] is not above 0.1 µM. The “MIC PM 12080” value in [10] was not above 0.1 µM.

On to `CNC(=O)C(NC(=O)c1ccc(C#Cc2ccc(CNCc3ccccn3)cc2)cc1)C(=O)NO` (centres unmarked) [Compound 13], for which the “MIC MH 6357” value in [1] came to 0.8 µM (≈ 0.377 µg/mL). Also, in [2], the “MIC MH 6374” value worked out at 0.8 µM (≈ 0.377 µg/mL). For the same compound, the “MIC MH 10720” value in test [3] turned out to be 0.2 µM (≈ 0.0943 µg/mL). Also, the “MIC MH 12587” value in test [4] was determined as 1.6 µM (≈ 0.754 µg/mL). Besides, in test [5], the “MIC MH 13065” value was 1.6 µM (≈ 0.754 µg/mL). The “MIC MH 13093” value in test [6] was 0.8 µM (≈ 0.377 µg/mL). Also, in [7], the “MIC PM 6267” value is not above 0.1 µM. Moreover, the “MIC PM 6391” value in test [8] stood at 0.2 µM (≈ 0.0943 µg/mL). Also, in test [9], the “MIC PM 10775” value was not above 0.1 µM. For the same compound, the “MIC PM 12080” value in test [10] is not above 0.1 µM.

In the case of `CNC(=O)C(NC(=O)c1ccc(C#Cc2ccc(CNCc3ccco3)cc2)cc1)C(=O)NO` (centres unmarked) [Compound 14], in [1], the “MIC MH 6357” value was found to be 0.4 µM (≈ 0.184 µg/mL). In addition, the “MIC MH 6374” value in [2] was determined as 0.4 µM (≈ 0.184 µg/mL). For the same compound, in test [3], the “MIC MH 10720” value worked out at 0.2 µM (≈ 0.0921 µg/mL). The “MIC MH 12587” value in test [4] was 0.4 µM (≈ 0.184 µg/mL). In test [5], the “MIC MH 13065” value came to 0.4 µM (≈ 0.184 µg/mL). Moreover, in [6], the “MIC MH 13093” value worked out at 0.8 µM (≈ 0.368 µg/mL). Further, the “MIC PM 6267” value in [7] is not above 0.1 µM. In addition, in test [8], the “MIC PM 6391” value was not above 0.1 µM. Also, the “MIC PM 10775” value in test [9] was not above 0.1 µM. Also, the “MIC PM 12080” value in [10] was not above 0.1 µM.

For the compound `CNC(=O)C(NC(=O)c1ccc(C#Cc2ccc(CNCc3cccs3)cc2)cc1)C(=O)NO` (centres unmarked) [Compound 15], in test [1], the “MIC MH 6357” value turned out to be 0.2 µM (≈ 0.0953 µg/mL). For the same compound, the “MIC MH 6374” value in [2] turned out to be 0.2 µM (≈ 0.0953 µg/mL). Further, the “MIC MH 10720” value in test [3] was not above 0.1 µM. Further, the “MIC MH 12587” value in test [4] came out at 0.8 µM (≈ 0.381 µg/mL). In test [5], the “MIC MH 13065” value turned out to be 0.2 µM (≈ 0.0953 µg/mL). In test [6], the “MIC MH 13093” value stood at 0.2 µM (≈ 0.0953 µg/mL). Also, in [7], the “MIC PM 6267” value was not above 0.1 µM. Besides, the “MIC PM 6391” value in test [8] is not above 0.1 µM. For the same compound, the “MIC PM 10775” value in [9] is not above 0.1 µM. For the same compound, the “MIC PM 12080” value in [10] is not above 0.1 µM.

The values above are taken from patent US12157717B2, “Compounds for the treatment of bovine or swine respiratory disease” (Intervet Inc., priority 2018, dated 2024).
